Laboratory results: US11149030B2, “Plants having increased tolerance to herbicides” (BASF AGRO B.V., priority 2016, dated 2021)
Where “and” joins values, the source holds several entries; their conditions need not be identical. Equal values may be shown once.

System: transgenic T2 Arabidopsis plants
Test: Greenhouse spray of transgenic T2 Arabidopsis plants, herbicide injury 0 to 100% phytotox rating (Table A)
Type: in vivo
Conditions: 14 days after treatment
Method: Additionally, transgenic T2 Arabidopsis plants are tested for improved tolerance to herbicides in greenhouse studies with the following herbicides: methyl 2-[2-chloro-5-[3-chloro-5-(trifluoromethyl)-2-pyridyl]-4-fluoro-phenoxy]-2-methoxy-acetate, and photosynthesis inhibitor diuron as negative control.
Table A: Transgenic T2 Arabidopsis plants, four weeks old, were sprayed in the greenhouse with the indicated amount of compound+1% (v/v) MSO. Herbicide injury was evaluated 14 days after treatment with a 0 to 100% phytotox rating scale where 0 is no injury relative to an unsprayed wild type check and 100% is completely dead.

SMILES: COC(=O)C(OC)Oc1cc(-c2ncc(C(F)(F)F)cc2Cl)c(F)cc1Cl (stereo not drawn) [methyl 2-[2-chloro-5-[3-chloro-5-(trifluoromethyl)-2-pyridyl]-4-fluoro-phenoxy]-2-methoxy-acetate]
- Herbicide injury, 0 to 100% phytotox rating (construct ALOMY_PPO2 F438I, 50 g ai/ha + 1% (v/v) MSO): 48%
- Herbicide injury, 0 to 100% phytotox rating (construct ALOMY_PPO2 F438I, 100 g ai/ha + 1% (v/v) MSO): 64%
- Herbicide injury, 0 to 100% phytotox rating (construct ALOMY_PPO2 F438I, 200 g ai/ha + 1% (v/v) MSO): 79%
- Herbicide injury, 0 to 100% phytotox rating (construct ALOMY_PPO2 F438M, 50 g ai/ha + 1% (v/v) MSO): 30%
- Herbicide injury, 0 to 100% phytotox rating (construct ALOMY_PPO2 F438M, 100 g ai/ha + 1% (v/v) MSO): 43%
- Herbicide injury, 0 to 100% phytotox rating (construct ALOMY_PPO2 F438M, 200 g ai/ha + 1% (v/v) MSO): 69%
- Herbicide injury, 0 to 100% phytotox rating (construct ALOMY_PPO2 F438V, 50 g ai/ha + 1% (v/v) MSO): 36%
- Herbicide injury, 0 to 100% phytotox rating (construct ALOMY_PPO2 F438V, 100 g ai/ha + 1% (v/v) MSO): 55%
- Herbicide injury, 0 to 100% phytotox rating (construct ALOMY_PPO2 F438V, 200 g ai/ha + 1% (v/v) MSO): 69%
- Herbicide injury, 0 to 100% phytotox rating (construct ALOMY_PPO2 L415A_F438M, 50 g ai/ha + 1% (v/v) MSO): 23%
- Herbicide injury, 0 to 100% phytotox rating (construct ALOMY_PPO2 L415A_F438M, 100 g ai/ha + 1% (v/v) MSO): 28%
- Herbicide injury, 0 to 100% phytotox rating (construct ALOMY_PPO2 L415A_F438M, 200 g ai/ha + 1% (v/v) MSO): 39%
- Herbicide injury, 0 to 100% phytotox rating (construct ALOMY_PPO2 L415E_F438M, 50 g ai/ha + 1% (v/v) MSO): 15%
- Herbicide injury, 0 to 100% phytotox rating (construct ALOMY_PPO2 L415E_F438M, 100 g ai/ha + 1% (v/v) MSO): 29%
- Herbicide injury, 0 to 100% phytotox rating (construct ALOMY_PPO2 L415E_F438M, 200 g ai/ha + 1% (v/v) MSO): 43%
- Herbicide injury, 0 to 100% phytotox rating (construct ALOMY_PPO2 L415G_F438M (two table lines), 50 g ai/ha + 1% (v/v) MSO): 36% and 26%
- Herbicide injury, 0 to 100% phytotox rating (construct ALOMY_PPO2 L415G_F438M (two table lines), 100 g ai/ha + 1% (v/v) MSO): 46% and 34%
- Herbicide injury, 0 to 100% phytotox rating (construct ALOMY_PPO2 L415G_F438M (two table lines), 200 g ai/ha + 1% (v/v) MSO): 59% and 46%
- Herbicide injury, 0 to 100% phytotox rating (construct ALOMY_PPO2 L415Q_F438M, 50 g ai/ha + 1% (v/v) MSO): 18%
- Herbicide injury, 0 to 100% phytotox rating (construct ALOMY_PPO2 L415Q_F438M, 100 g ai/ha + 1% (v/v) MSO): 23%
- Herbicide injury, 0 to 100% phytotox rating (construct ALOMY_PPO2 L415Q_F438M, 200 g ai/ha + 1% (v/v) MSO): 41%
- Herbicide injury, 0 to 100% phytotox rating (construct ALOMY_PPO2 R137L_F438L, 50 g ai/ha + 1% (v/v) MSO): 55%
- Herbicide injury, 0 to 100% phytotox rating (construct ALOMY_PPO2 R137L_F438L, 100 g ai/ha + 1% (v/v) MSO): 59%
- Herbicide injury, 0 to 100% phytotox rating (construct ALOMY_PPO2 R137L_F438L, 200 g ai/ha + 1% (v/v) MSO): 71%
- Herbicide injury, 0 to 100% phytotox rating (construct ALOMY_PPO2 R137L_F438M, 50 g ai/ha + 1% (v/v) MSO): 50%
- Herbicide injury, 0 to 100% phytotox rating (construct ALOMY_PPO2 R137L_F438M, 100 g ai/ha + 1% (v/v) MSO): 68%
- Herbicide injury, 0 to 100% phytotox rating (construct ALOMY_PPO2 R137L_F438M, 200 g ai/ha + 1% (v/v) MSO): 70%
- Herbicide injury, 0 to 100% phytotox rating (construct ALOMY_PPO2 R137L_F438V, 50 g ai/ha + 1% (v/v) MSO): 39%
- Herbicide injury, 0 to 100% phytotox rating (construct ALOMY_PPO2 R137L_F438V, 100 g ai/ha + 1% (v/v) MSO): 58%
- Herbicide injury, 0 to 100% phytotox rating (construct ALOMY_PPO2 R137L_F438V, 200 g ai/ha + 1% (v/v) MSO): 65%
- Herbicide injury, 0 to 100% phytotox rating (construct AMATU_PPO2 L397C_F420M, 50 g ai/ha + 1% (v/v) MSO): 58%
- Herbicide injury, 0 to 100% phytotox rating (construct AMATU_PPO2 L397C_F420M, 100 g ai/ha + 1% (v/v) MSO): 63%
- Herbicide injury, 0 to 100% phytotox rating (construct AMATU_PPO2 L397C_F420M, 200 g ai/ha + 1% (v/v) MSO): 71%
- Herbicide injury, 0 to 100% phytotox rating (construct AMATU_PPO2 L397D_F420V, 50 g ai/ha + 1% (v/v) MSO): 49%
- Herbicide injury, 0 to 100% phytotox rating (construct AMATU_PPO2 L397D_F420V, 100 g ai/ha + 1% (v/v) MSO): 59%
- Herbicide injury, 0 to 100% phytotox rating (construct AMATU_PPO2 L397D_F420V, 150 g ai/ha + 1% (v/v) MSO): 67%
- Herbicide injury, 0 to 100% phytotox rating (construct AMATU_PPO2 L397E_F420M, 50 g ai/ha + 1% (v/v) MSO): 59%
- Herbicide injury, 0 to 100% phytotox rating (construct AMATU_PPO2 L397E_F420M, 100 g ai/ha + 1% (v/v) MSO): 68%
- Herbicide injury, 0 to 100% phytotox rating (construct AMATU_PPO2 L397E_F420M, 200 g ai/ha + 1% (v/v) MSO): 79%
- Herbicide injury, 0 to 100% phytotox rating (construct AMATU_PPO2 L397E_F420V, 50 g ai/ha + 1% (v/v) MSO): 60%
- Herbicide injury, 0 to 100% phytotox rating (construct AMATU_PPO2 L397E_F420V, 100 g ai/ha + 1% (v/v) MSO): 76%
- Herbicide injury, 0 to 100% phytotox rating (construct AMATU_PPO2 L397E_F420V, 200 g ai/ha + 1% (v/v) MSO): 85%
- Herbicide injury, 0 to 100% phytotox rating (construct AMATU_PPO2 L397G_F420M, 50 g ai/ha + 1% (v/v) MSO): 40%
- Herbicide injury, 0 to 100% phytotox rating (construct AMATU_PPO2 L397G_F420M, 100 g ai/ha + 1% (v/v) MSO): 56%
- Herbicide injury, 0 to 100% phytotox rating (construct AMATU_PPO2 L397G_F420M, 200 g ai/ha + 1% (v/v) MSO): 66%
